# Patent US20070208005A1, “TETRAHYDROBENZAZEPINES AS ANTAGONISTS AND/OR REVERSE AGONISTS OF THE HISTAMINE H3 RECEPTOR” (priority 2004, published 2007)
# Target: T1, histamine H3 receptor (Homo sapiens, UniProt Q9Y5N1)
# T1 construct: expressed in transfected cells; host or cells: CHO K1 cells (pSwitch/pGene GeneSwitch system, mifepristone-induced), clone 3H3; membranes
# Assay: Histamine H3 functional antagonist assay ([35S]-GTPγS SPA on membranes of H3 cells)
# Format: biochemical
# Conditions: membrane prepared from cultured H3 cells (CHO K1, human H3); histamine at EC80; averages of a number of experiments; read-out: functional pKi (fpKi), H3 functional antagonist assay (converted)
# Excerpt: A membrane preparation containing histamine H3 receptors may be prepared in accordance with the following procedures:
# (i) Generation of Histamine H3 Cell Line
# DNA encoding the human histamine H3 gene (Huvar, A. et al. (1999) Mol. Pharmacol. 55(6), 1101-1107) was cloned into a holding vector, pcDNA3.1 TOPO (InVitrogen) and its cDNA was isolated from this vector by restriction digestion of plasmid DNA with the enzymes BamH1 and Not-1 and ligated into the inducible expression vector pGene (InVitrogen) digested with the same enzymes. The GeneSwitch™ system (a system where in transgene expression is switched off in the absence of an inducer and switched on in the presence of an inducer) was performed as described in U.S. Pat. Nos. 5,364,791; 5,874,534; and 5,935,934. Ligated DNA was transformed into competent DH5α E. coli host bacterial cells and plated onto Luria Broth (LB) agar containing Zeocin™ (an antibiotic which allows the selection of cells expressing the sh ble gene which is present on pGene and pSwitch) at 50 μg ml^−1. Colonies containing the re-ligated plasmid were identified by restriction analysis. DNA for transfection into mammalian cells was prepared from 250 ml cultures of the host bacterium containing the pGeneH3 plasmid and isolated using a DNA preparation kit (Qiagen Midi-Prep) as per manufacturers guidelines (Qiagen). CHO K1 cells previously transfected with the pSwitch regulatory plasmid (InVitrogen) were seeded at 2×10e6 cells per T75 flask in Complete Medium, containing Hams F12 (GIBCOBRL, Life Technologies) medium supplemented with 10% v/v dialysed foetal bovine serum, L-glutamine, and hygromycin (100 μg ml^−1), 24 hours prior to use. Plasmid DNA was transfected into the cells using Lipofectamine plus according to the manufacturers guidelines (InVitrogen). 48 hours post transfection cells were placed into complete medium supplemented with 500 μg ml^−1 Zeocin™.
# 10-14 days post selection 10 nM Mifepristone (InVitrogen), was added to the culture medium to induce the expression of the receptor. 18 hours post induction cells were detached from the flask using ethylenediamine tetra-acetic acid (EDTA; 1:5000; InVitrogen), following several washes with phosphate buffered saline pH 7.4 and resuspended in Sorting Medium containing Minimum Essential Medium (MEM), without phenol red, and supplemented with Earles salts and 3% Foetal Clone II (Hyclone). Approximately 1×10e7 cells were examined for receptor expression by staining with a rabbit polyclonal antibody, 4a, raised against the N-terminal domain of the histamine H3 receptor, incubated on ice for 60 minutes, followed by two washes in sorting medium. Receptor bound antibody was detected by incubation of the cells for 60 minutes on ice with a goat anti rabbit antibody, conjugated with Alexa 488 fluorescence marker (Molecular Probes). Following two further washes with Sorting Medium, cells were filtered through a 50 μm Filcon™ (BD Biosciences) and then analysed on a FACS Vantage SE Flow Cytometer fitted with an Automatic Cell Deposition Unit. Control cells were non-induced cells treated in a similar manner. Positively stained cells were sorted as single cells into 96-well plates, containing Complete Medium containing 500 μg ml^−1 Zeocin™ and allowed to expand before reanalysis for receptor expression via antibody and ligand binding studies. One clone, 3H3, was selected for membrane preparation.
# (ii) Membrane Preparation from Cultured Cells
# All steps of the protocol are carried out at 4° C. and with pre-cooled reagents. The cell pellet is resuspended in 10 volumes of homogenisation buffer (50 mM N-2-hydroxyethylpiperazine-N′-2-ethanesulfonic acid (HEPES), 1 mM ethylenediamine tetra-acetic acid (EDTA), pH 7.4 with KOH, supplemented with 10e-6M leupeptin (acetyl-leucyl-leucyl-arginal; Sigma L2884), 25 μg/ml bacitracin (Sigma B0125), 1 mM phenylmethylsulfonyl fluoride (PMSF) and 2×10e-6M pepstain A (Sigma)). […]
# T1 sequence (Q9Y5N1 whole entry): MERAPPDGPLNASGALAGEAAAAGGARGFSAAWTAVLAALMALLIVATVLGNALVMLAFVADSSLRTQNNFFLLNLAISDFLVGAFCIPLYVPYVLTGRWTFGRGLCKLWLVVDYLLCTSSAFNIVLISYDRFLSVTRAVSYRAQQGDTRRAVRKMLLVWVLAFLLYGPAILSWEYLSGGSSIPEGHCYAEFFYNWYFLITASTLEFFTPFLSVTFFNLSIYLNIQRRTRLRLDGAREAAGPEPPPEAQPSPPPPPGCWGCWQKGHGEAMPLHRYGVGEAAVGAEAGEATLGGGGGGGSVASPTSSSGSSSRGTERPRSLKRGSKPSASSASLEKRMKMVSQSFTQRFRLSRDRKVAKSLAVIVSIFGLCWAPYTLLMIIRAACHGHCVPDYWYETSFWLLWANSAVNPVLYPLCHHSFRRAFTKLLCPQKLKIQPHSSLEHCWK
row,Ki,Structure (SMILES)
1,< 0.316 nM,"N#Cc1ccc(Cc2ccc3c(c2)CCN(C2CCC2)CC3)cc1 [Example E1, 4-[(3-Cyclobutyl-2,3,4,5-tetrahydro-1H-3-benzazepin-7-yl)methyl]benzonitrile]"
2,< 3.16 nM,"O=C1CCCN1c1ccc(Cc2ccc3c(c2)CCN(C2CCC2)CC3)nc1 [Example E5, 1-{6-[(3-cyclobutyl-2,3,4,5-tetrahydro-1H-3-benzazepin-7-yl)methyl]-3-pyridinyl}-2-pyrrolidinone]"
3,< 3.16 nM,"N#Cc1ccc(Cc2ccc3c(c2)CCN(C2CCC2)CC3)cn1 [Example E12, 5-[(3-Cyclobutyl-2,3,4,5-tetrahydro-1H-3-benzazepin-7-yl)methyl]-2-pyridinecarbonitrile]"
4,< 0.316 nM,"Cc1noc(-c2ccc(Cc3ccc4c(c3)CCN(C3CCC3)CC4)cc2)n1 [Example E13, 3-Cyclobutyl-7-{[4-(3-methyl-1,2,4-oxadiazol-5-yl)phenyl]methyl}-2,3,4,5-tetrahydro-1H-3-benzazepine]"
5,< 3.16 nM,"Cc1noc(-c2ccc(Cc3ccc4c(c3)CCN(C3CCC3)CC4)cn2)n1 [Example E14, 3-Cyclobutyl-7-{[6-(3-methyl-1,2,4-oxadiazol-5-yl)-3-pyridinyl]methyl}-2,3,4,5-tetrahydro-1H-3-benzazepine]"
6,< 3.16 nM,"Cc1noc(-c2cnc(Cc3ccc4c(c3)CCN(C3CCC3)CC4)cn2)n1 [Example E15, 3-Cyclobutyl-7-{[5-(3-methyl-1,2,4-oxadiazol-5-yl)-2-pyrazinyl]methyl}-2,3,4,5-tetrahydro-1H-3-benzazepine]"
7,< 3.16 nM,"Cc1noc(-c2ccc(Cc3ccc4c(c3)CCN(C3CCC3)CC4)nc2)n1 [Example E16, 3-Cyclobutyl-7-{[5-(3-methyl-1,2,4-oxadiazol-5-yl)-2-pyridinyl]methyl}-2,3,4,5-tetrahydro-1H-3-benzazepine]"
8,< 3.16 nM,"CN(C)C(=O)c1ccc(Cc2ccc3c(c2)CCN(C2CCC2)CC3)cc1 [Example E17, 4-[(3-Cyclobutyl-2,3,4,5-tetrahydro-1H-3-benzazepin-7-yl)methyl]-N,N-dimethylbenzamide]"
9,< 3.16 nM,"O=C(c1ccc(Cc2ccc3c(c2)CCN(C2CCC2)CC3)cc1)N1CCCCC1 [Example E18, 3-Cyclobutyl-7-{[4-(1-piperidinylcarbonyl)phenyl]methyl}-2,3,4,5-tetrahydro-1H-3-benzazepine]"
10,< 3.16 nM,"O=C(c1ccc(Cc2ccc3c(c2)CCN(C2CCC2)CC3)cc1)N1CCOCC1 [Example E19, 3-Cyclobutyl-7-{[4-(4-morpholinylcarbonyl)phenyl]methyl}-2,3,4,5-tetrahydro-1H-3-benzazepine]"
11,< 3.16 nM,"O=C(c1cnc(Cc2ccc3c(c2)CCN(C2CCC2)CC3)cn1)N1CCCC1 [Example E20, 3-Cyclobutyl-7-{[5-(1-pyrrolidinylcarbonyl)-2-pyrazinyl]methyl}-2,3,4,5-tetrahydro-1H-3-benzazepine]"
12,< 3.16 nM,"CC(C)NC(=O)c1cnc(Cc2ccc3c(c2)CCN(C2CCC2)CC3)cn1 [Example E21, 5-[(3-Cyclobutyl-2,3,4,5-tetrahydro-1H-3-benzazepin-7-yl)methyl]-N-(1-methylethyl)-2-pyrazinecarboxamide]"
13,< 3.16 nM,"CN(C)C(=O)c1cnc(Cc2ccc3c(c2)CCN(C2CCC2)CC3)cn1 [Example E22, 5-[(3-Cyclobutyl-2,3,4,5-tetrahydro-1H-3-benzazepin-7-yl)methyl]-N,N-dimethyl-2-pyrazinecarboxamide]"
14,< 3.16 nM,"O=C(NCC(F)(F)F)c1cnc(Cc2ccc3c(c2)CCN(C2CCC2)CC3)cn1 [Example E23, 5-[(3-Cyclobutyl-2,3,4,5-tetrahydro-1H-3-benzazepin-7-yl)methyl]-N-(2,2,2-trifluoroethyl)-2-pyrazinecarboxamide]"
15,< 3.16 nM,"N#CCNC(=O)c1cnc(Cc2ccc3c(c2)CCN(C2CCC2)CC3)cn1 [Example E24, N-(Cyanomethyl)-5-[(3-cyclobutyl-2,3,4,5-tetrahydro-1H-3-benzazepin-7-yl)methyl]-2-pyrazinecarboxamide]"
16,< 3.16 nM,"CNC(=O)c1ccc(Cc2ccc3c(c2)CCN(C2CCC2)CC3)cn1 [Example E26, 5-[(3-Cyclobutyl-2,3,4,5-tetrahydro-1H-3-benzazepin-7-yl)methyl]-N-methyl-2-pyridinecarboxamide]"
17,< 3.16 nM,"NC(=O)c1ccc(Cc2ccc3c(c2)CCN(C2CCC2)CC3)cn1 [Example E27, 5-[(3-Cyclobutyl-2,3,4,5-tetrahydro-1H-3-benzazepin-7-yl)methyl]-2-pyridinecarboxamide]"
18,< 3.16 nM,"O=C1CCCN1c1ccc(Cc2ccc3c(c2)CCN(C2CCC2)CC3)cc1 [Example E28, 1-{4-[(3-Cyclobutyl-2,3,4,5-tetrahydro-1H-3-benzazepin-7-yl)methyl]phenyl}-2-pyrrolidinone]"
19,< 3.16 nM,"O=C1CCCN1c1ccc(Cc2ccc3c(c2)CCN(C2CCC2)CC3)cn1 [Example E29, 1-{5-[(3-Cyclobutyl-2,3,4,5-tetrahydro-1H-3-benzazepin-7-yl)methyl]-2-pyridinyl}-2-pyrrolidinone]"
20,< 3.16 nM,"c1cnc(Cc2ccc3c(c2)CCN(C2CCC2)CC3)cn1 [Example E30, 3-Cyclobutyl-7-(2-pyrazinylmethyl)-2,3,4,5-tetrahydro-1H-3-benzazepine]"
21,< 0.316 nM,"O=C1CCCN1c1cnc(Cc2ccc3c(c2)CCN(C2CCC2)CC3)cn1 [Example E31, 1-{5-[(3-Cyclobutyl-2,3,4,5-tetrahydro-1H-3-benzazepin-7-yl)methyl]-2-pyrazinyl}-2-pyrrolidinone]"
22,< 3.16 nM,"CC(=O)Nc1cnc(Cc2ccc3c(c2)CCN(C2CCC2)CC3)cn1 [Example E32, N-{5-[(3-Cyclobutyl-2,3,4,5-tetrahydro-1H-3-benzazepin-7-yl)methyl]-2-pyrazinyl}acetamide]"
23,< 0.316 nM,"CNC(=O)c1cnc(Cc2ccc3c(c2)CCN(C2CCC2)CC3)cn1 [Example E33, 5-[(3-Cyclobutyl-2,3,4,5-tetrahydro-1H-3-benzazepin-7-yl)methyl]-N-methyl-2-pyrazinecarboxamide]"
24,< 3.16 nM,"CCNC(=O)c1cnc(Cc2ccc3c(c2)CCN(C2CCC2)CC3)cn1 [Example E34, 5-[(3-Cyclobutyl-2,3,4,5-tetrahydro-1H-3-benzazepin-7-yl)methyl]-N-ethyl-2-pyrazinecarboxamide]"
25,< 3.16 nM,"CNC(=O)c1cnc(Cc2ccc3c(c2)CCN(C2CCCC2)CC3)cn1 [Example E35, 5-[(3-Cyclopentyl-2,3,4,5-tetrahydro-1H-3-benzazepin-7-yl)methyl]-N-methyl-2-pyrazinecarboxamide]"
26,< 3.16 nM,"O=C1CCCN1c1ccc(Cc2ccc3c(c2)CCN(C2CCCC2)CC3)cc1 [Example E36, 1-{4-[(3-Cyclopentyl-2,3,4,5-tetrahydro-1H-3-benzazepin-7-yl)methyl]phenyl}-2-pyrrolidinone]"
27,< 3.16 nM,"O=C1CCCN1c1ccc(Cc2ccc3c(c2)CCN(C2CCCC2)CC3)cn1 [Example E37, 1-{5-[(3-cyclopentyl-2,3,4,5-tetrahydro-1H-3-benzazepin-7-yl)methyl]-2-pyridinyl}-2-pyrrolidinone]"
28,< 3.16 nM,"O=C1OCCN1c1ccc(Cc2ccc3c(c2)CCN(C2CCC2)CC3)cn1 [Example E39, 3-{5-[(3-Cyclobutyl-2,3,4,5-tetrahydro-1H-3-benzazepin-7-yl)methyl]-2-pyridinyl}-1,3-oxazolidin-2-one]"
29,< 3.16 nM,"CN1CCN(c2ccc(Cc3ccc4c(c3)CCN(C3CCC3)CC4)cn2)C1=O [Example E40, 1-{5-[(3-Cyclobutyl-2,3,4,5-tetrahydro-1H-3-benzazepin-7-yl)methyl]-2-pyridinyl}-3-methyl-2-imidazolidinone]"
